Experimental data taken from patent US12616691B2, “Use of fatty acid oxidation inhibitors as antimicrobials” (Washington University in St. Louis, priority 2018, dated 2026).
Values after ≈ are worked out from the molar mass of the structure shown. Read-outs that look alike come from different tables or passages of the source.

Tests used:
Mtb (H37Rv) = assay: MIC on Mtb (H37Rv) in liquid; format: cell-based, Mycobacterium tuberculosis; details: for MIC: Mycobacterium tuberculosis
FAO [1] = details: murine and human monocyte-derived macrophages; cited from earlier work
Mtb = assay: MIC against Mtb in human THP1 cells; format: cell-based, Mycobacterium tuberculosis
Description: If CPT-1 and 3-KAT are the relevant antimicrobial targets, respectively, concordance in the potency of the compounds is anticipated in the assays. […] The MIC of TMZ against Mtb in human THP1 cells was approximately […].

BMDMs [2] = assay: Macrophage viability (calcein-AM); format: cell-based, murine; details: 72 hours
Experimental: FIG. 4B depicts the effect of metformin and oxfenicine on macrophage viability. BMDMs were treated with the indicated concentration of compound for 72 hours, and viability was assessed using the cellular dye, calcein-AM, and normalized to untreated controls (--). Data are mean+/−SD.
Importantly, plasma concentrations of TMZ in patients treated for angina (60 mg/day) are 70-100 nM, in line with the ability of TMZ to inhibit FAO in intact hearts at 100 nM. […] BMDMs were treated with the indicated concentration of compound for 72 hours, and viability was assessed using the cellular dye, calcein-AM, and normalized to untreated controls (--).
The antimicrobial activity and FAO inhibition was analyzed for cellular toxicity. BMDMs were treated with the indicated concentration of compound for 72 hours, and viability was assessed using the cellular dye, calcein-AM, and normalized to untreated controls (--).

[3] = design: species or system mice; details: in vivo
Experimental: A pharmacokinetics (PK) study of TMZ in C57BL/6 mice was performed. […] Therefore, subcutaneous osmotic pumps were used to maintain steady state plasma levels of TMZ. A second PK study was performed using subcutaneous osmotic pumps (Alzet Osmotic Pumps) to establish the optimal infusion rate and dosing for a subsequent efficacy study. TMZ steady state exposure in mice was successfully achieved with the use of subcutaneous osmotic pumps.

H37Rv = assay: Efficacy of TMZ in acute TB infection in mice (CFU in lungs and spleen); format: in vivo, Mycobacterium tuberculosis; details: 16.8 mg/kg/day, 2 weeks
M. abscessus = assay: Intracellular growth of M. abscessus in RAW264.7 cells and BMDMs (CFU); format: cell-based, Mycobacterium abscessus; details: RAW264.7 cells and wt BMDMs, 500 nM
p62 = assay: Autophagy induction: p62 co-localization with Mtb and p62 puncta in BMDMs; format: cell-based; details: 5 nM
Experimental: Wild type BMDMs were infected with H37Rv expressing DsRed at MOI 1:5 for 4 hours. After bacterial uptake, the culture medium was supplemented with TMZ (5 nm). At 24 hours post infection (hpi), samples were fixed and immunostained with p62 (green). Alternatively, bacterial numbers were enumerated by CFU at 3 days post infection (dpi). For IF, images were captured using a confocal microscope equipped with a 60× oil immersion objective lens. To quantify co-localation of Mtb and autophagosomes each bacteria was converted to a region of interest (ROI) and the mean fluorescence intensity of the p62 signal was measured. To assess autophagy induction, the total p62 puncta per cell in shapes that were untreated or treated with TMZ. IFN-γ, which activates autophagy, was used as a positive control.

total cellular ROS = assay: Total cellular ROS (CellRox staining) in macrophages; format: cell-based
Experimental: Total cellular ROS levels were compared in FAO inhibitor-treated and untreated samples using CellRox (Molecular Probes) staining. Macrophages were infected as previously described and co-localization of Mth with subunits of the NADPH oxidase (p40^phox and gp91^phox/NOX2) were monitored in FAO inhibitor-treated and untreated samples. To determine whether FAO inhibition induced oxidative stress in the host, uninfected RAW 264.7 cells were treated with TMZ at 5 nM and 500 nM and ETM at 50 μM and total cellular ROS was determined at 1, 3, and 24 hours post-treatment using CellRox dye. In parallel, tert-butyl hydroperoxide (0.5 mM tBHP) was used as a positive control. The samples were imaged using confocal microscopy and the fluorescence intensity of each cell was quantified.

mitochondrial ROS = assay: Mitochondrial ROS (mitoSOX) in uninfected BMDMs; format: cell-based; details: TMZ 500 nM 3 hours; antimycin 30 μM, rotenone 10 μM 30 minutes
Experimental: Mitochondrial ROS production was measured in macrophages treated with TMZ in combination with ETC inhibitors antimycin and rotenone. Rotenone inhibits Complex I (NADH coenzymeQ reductase) and antimycin is an inhibitor of Complex III (coenzyme Q: cytochrome C oxidoreductase). Uninfected BMDMs were treated with 500 nM TMZ for 3 hours. Thirty minutes prior to termination of the experiment, antimycin (30 μM) and rotenone (10 μM) were added. Menadione (60 μM, 30 mins), which causes mitochondrial depolarization, was used as a positive control. Mitochondrial ROS production was increased in samples treated with TMZ, antimycin and rotenone (FIG. 14A). However, contrasting results were observed when TMZ was used in combination with the ETC inhibitors.

BMDMs [4] = assay: OCR and ECAR by SeaHorse metabolic flux assay in BMDMs; format: cell-based; details: wild type BMDMs, 5 nM, 3 hours
Experimental: (§1) Oxygen consumption rate (OCR) and extracellular acidification rate (ECAR) was measured using SeaHorse Analyzers in uninfected wild type and FAO-deficient carnitine palmitoyltransferase 2 KO (Cpt2 cKO) BMDMs treated with 5 nM TMZ. Additionally, whether FAO inhibitors promoted pro-inflammatory signaling was tested. Wild type macrophages were infected with H37Rv and treated with 5 nM TMZ for 24 and 72 hpi. Following filter sterilization, sample supernatants were examined for pro-inflammatory cytokines including, IL-1β, IL-6, TNF-α, and the anti-inflammatory cytokine IL-10.

[5] = tested on: IL-6, TNF-α, IL-1α/β, and IL-10; assay: Cytokine levels in supernatants of BMDMs; format: cell-based; details: wild type BMDMs, 5 nM, 24 and 72 hpi
Experimental: as §1

LC3 = assay: Autophagy flux (LC3 with and without bafilomycin A1) in H37Rv-infected BMDMs; format: cell-based; details: 500 nM, 3 hours
gp91phox/NOX2 = assay: Co-localization of Mtb with NADPH oxidase subunit NOX2 in BMDMs; format: cell-based; details: 24 hours
long-chain 3-KAT = target: T1, long-chain 3-KAT (Rattus norvegicus, UniProt Q60587); details: rat heart mitochondria; cited from earlier work
T1 construct: from tissue; host or cells: rat heart mitochondria
T1 sequence (Q60587 35-475): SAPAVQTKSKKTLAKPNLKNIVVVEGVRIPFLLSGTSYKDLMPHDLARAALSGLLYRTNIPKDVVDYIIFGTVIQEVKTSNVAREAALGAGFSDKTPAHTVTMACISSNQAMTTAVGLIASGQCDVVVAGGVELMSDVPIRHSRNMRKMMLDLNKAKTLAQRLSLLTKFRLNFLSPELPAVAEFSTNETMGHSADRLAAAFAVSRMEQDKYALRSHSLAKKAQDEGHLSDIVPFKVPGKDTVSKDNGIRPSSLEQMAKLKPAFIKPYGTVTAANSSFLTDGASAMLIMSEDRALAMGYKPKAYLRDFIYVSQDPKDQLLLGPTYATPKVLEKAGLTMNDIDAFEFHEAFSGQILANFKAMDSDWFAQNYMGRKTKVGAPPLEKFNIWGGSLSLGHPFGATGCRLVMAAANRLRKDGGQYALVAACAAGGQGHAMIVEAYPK
T1 sequence (Q64428 37-763 partner): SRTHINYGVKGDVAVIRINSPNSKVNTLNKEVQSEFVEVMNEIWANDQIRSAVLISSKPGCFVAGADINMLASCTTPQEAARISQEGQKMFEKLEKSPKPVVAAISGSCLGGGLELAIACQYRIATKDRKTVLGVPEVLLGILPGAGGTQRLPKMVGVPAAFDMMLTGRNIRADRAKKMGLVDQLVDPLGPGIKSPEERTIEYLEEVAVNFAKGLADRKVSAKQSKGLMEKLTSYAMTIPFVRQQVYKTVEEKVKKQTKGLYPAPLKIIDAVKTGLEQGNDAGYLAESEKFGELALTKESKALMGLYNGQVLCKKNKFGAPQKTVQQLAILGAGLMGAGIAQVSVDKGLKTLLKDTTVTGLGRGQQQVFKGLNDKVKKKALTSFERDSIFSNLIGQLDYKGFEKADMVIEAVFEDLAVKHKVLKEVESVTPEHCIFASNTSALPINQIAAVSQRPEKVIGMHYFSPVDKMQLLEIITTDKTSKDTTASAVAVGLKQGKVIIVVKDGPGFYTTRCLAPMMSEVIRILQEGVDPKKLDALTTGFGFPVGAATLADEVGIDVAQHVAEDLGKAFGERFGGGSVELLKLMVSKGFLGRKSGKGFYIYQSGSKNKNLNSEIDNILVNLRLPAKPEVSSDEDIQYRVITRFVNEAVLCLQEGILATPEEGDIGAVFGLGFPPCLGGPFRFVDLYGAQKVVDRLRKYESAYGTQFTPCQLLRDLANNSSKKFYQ

FAO [6] = details: cited from earlier work
[7] = human, in vivo, 20 mg; cited from earlier work
[8] = Mtb (H37Rv) in liquid, read-out: MIC

CCOC(=O)C1(CCCCCCOc2ccc(Cl)cc2)CO1 (centres unmarked) [Etomoxir, ethyl 2-[6-(4-chlorophenoxy)hexyl]oxirane-2-carboxylate]
MIC (Mtb (H37Rv); [8]): > 250 µM
direct effect on Mtb growth (Mtb (H37Rv); ten times the dose that inhibited intracellular Mtb): did not directly prevent Mtb growth
concentration that blocks FAO in macrophages (FAO [1]): 10 to 25 µM

NNC(=O)c1ccncc1 [INH, isoniazid]
MIC (Mtb (H37Rv); [8]): < 0.3 µM

CN(C)C(=N)N=C(N)N [Metformin, metformin]
MIC (Mtb (H37Rv); [8]): > 15000 µM

C1CCC(C(CC2CCCCN2)C2CCCCC2)CC1 (centres unmarked) [Perhexiline, 2-(2,2-dicyclohexylethyl)piperidine]
MIC (Mtb (H37Rv); [8]): > 100 µM

COc1ccc(CN2CCNCC2)c(OC)c1OC [Trimetazidine, 1-(2,3,4-trimethoxybenzyl)piperazine]
MIC (Mtb (H37Rv); H37RV): 1000 µM (≈ 266 µg/mL)
MIC against Mtb in human THP1 cells (Mtb): approximately 50 nM
macrophage toxicity (BMDMs [2]): not related to macrophage toxicity
predicted free drug concentrations ([3]; C57BL/6, mouse, 16.8 mg/kg/day): 135 nM
half-life ([3]; mouse): less than an hour
reduction in Mtb CFUs in the lungs (H37Rv; C57Bl/6 mice): 50-70%
bacterial burden in lung and spleen tissues (H37Rv; vs untreated control mice): significantly reduced bacterial burden
M. abscessus infection (CFU) (M. abscessus): significantly decreased infection
total number of p62 puncta in macrophages (p62): significantly increased
co-localization of H37Rv and p62 (p62; 24 hpi): increased
total cell ROS in Mtb-infected Atg5 KO BMDMs (total cellular ROS; 3 hour treatment): increased ROS signal
total cell ROS in Mtb-infected Nox2 KO BMDMs (total cellular ROS; 24 hours, 5 nM): significant increase in ROS
total cell ROS in Mtb-infected wild type BMDMs (total cellular ROS; 24 hours, 5 nM): induced ROS
mitochondrial ROS production (mitochondrial ROS): increased
ECAR (BMDMs [4]): decrease
levels of IL-6, TNF-α, IL-1α/β, and IL-10 [5]: No significant difference
autophagy flux (LC3): No changes
co-localization of Mtb and NOX2 (gp91phox/NOX2): increased
IC50 (long-chain 3-KAT): ~75 nM
concentration that inhibits FAO in intact hearts (FAO [6]): 100 nM
Cmax [7]: 313 nM

C=C(C)[C@H]1Cc2c(ccc3c2O[C@@H]2COc4cc(OC)c(OC)cc4[C@@H]2C3=O)O1 [rotenone]
mitochondrial ROS production (mitochondrial ROS): increased

antimycin
mitochondrial ROS production (mitochondrial ROS): increased
